Laboratory results: patent US20070219180A1, “Muscle Relaxtion Accelerator and Therapeutic Agent for Muscular Tissue Diseases Such as Muscle Relaxation Failure” (priority 2004, published 2007)

Assays:
myosin light chains = test: Experiment 5: amount of precipitate of myosin light chains; format: binding, swine; details: concentration of the compound 10^−3 mol
Protocol: In this experiment, the effects of the compound were studied on the amount of precipitate of myosin light chains, which is a component of the troponin test sample used in Experiment 4.
A sample buffer for polyacrylamide gel electrophoresis (SDS-PAGE) was added to each washed test precipitate, which was prepared in the manner described above, and mixed well to suspend the test precipitate. The resulting suspension was electrophoresed on a gel (PAG MINI “No. 1” 10/20) for about 1 hour at 40 mA. After electrophoresis, the suspension was silver-stained using “Daiichi” 2D-silver staining reagent (Daiichi Pure Chemicals Co., Ltd), and washed with distilled water and dried. The amount of precipitate in each silver-stained protein band obtained by gel electrophoresis was quantitated using a densitometer. […] The protein band from gel electrophoresis was stained using a reagent for mass spectrometry (silver staining reagent for mass spectrometry, Wako Pure Chemical Industries Ltd.), and a peptide fragment obtained from the protein that gave the band in gel electrophoresis was analyzed using high performance liquid chromatography (MAGIC2002, Michrom BioResources, Inc, USA).

[1] = system: binding of troponin I to the actin-tropomyosin complex; test: Experiment 4 and comparison example: co-precipitation (binding) of troponin I with the actin-tropomyosin complex in the presence of EGTA; parameters: species or system swine; details: 10 mM EGTA, 100,000×g 120 min 25° C.
Protocol: The actin-tropomyosin complex and the troponin C-I complex are usually detected by analyzing the precipitate obtained by ultracentrifugation of a mixture containing the actin-tropomyosin complex and the troponin C-I complex for 120 minutes at 100,000×g at 25° C. The binding of the troponin C-I complex to the actin-tropomyosin complex in muscle tissues can be confirmed by the detected actin-tropomyosin complex and the detected troponin C-I complex. For example, when a mixture containing the actin-tropomyosin complex and the troponin C-I complex is ultracentrifuged in the presence of EGTA as a calcium chelating agent (in other words, in the absence of calcium ions), the actin-tropomyosin complex and the troponin C-I complex combine each other to precipitate together. Detection of troponin I in the precipitate using SDS-gel electrophoresis allows confirmation that the precipitate contains a complex formed by the actin-tropomyosin complex and the troponin C-I complex.
A precipitate due to binding of the actin-tropomyosin complex and troponin I is usually not formed when a mixture containing the actin-tropomyosin complex, troponin and propranolol (a β-blocker) used as a therapeutic agent for heart failure is ultracentrifuged at 100,000×g for 120 minutes 25° C.
Swine muscle-derived actin, chicken gizzard-derived tropomyosin and swine myocardium-derived troponin used in this experiment were purchased from Sigma-Aldrich Corporation, and other unspecified reagents used in this experiment were purchased from Wako Pure Chemical Industries Ltd.
A 500 μl sample was prepared by adding 4.2 μg of actin, 2.1 μg of tropomyosin and 14 μg of troponin to 500 μl of a reaction solution containing 60 mM KCl, 20 mM MOPS (3-morpholinopropanesulfonic acid), 2 mM of MgCl2, 0.05 μg of pepstatin A, and 15 mM 2-mercaptoethanol. After centrifugation of this sample at 2,000×g for 10 minutes at 25° C., the precipitate was removed and the resulting supernatant was distributed to separate test tubes containing 10 mM of EGTA, and each tube was determined as a test sample.
Each test sample was reacted for 120 minutes at 25° C. and centrifuged at 100,000×g for 120 minutes at 25° C., and the supernatants were removed. After reaction solution was gently added to the removed precipitate so as not to suspend the precipitate, the precipitate was again removed by suction, washed, and determined as a test precipitate.
A sample buffer for polyacrylamide gel electrophoresis (SDS-PAGE) was added to each washed test precipitate and mixed well to suspend the test precipitate. The resulting suspension was electrophoresized on a gel (PAG MINI “No. 1” 10/20) for about 1 hour at 40 mA. After electrophoresis, the suspension was silver-stained using “Daiichi” 2D-silver staining reagent (Daiichi Pure Chemicals Co., Ltd), and washed with distilled water and dried. The amount of precipitate in each silver-stained protein band obtained by gel electrophoresis was quantitated using a densitometer.
The amounts of precipitate of troponin I in the second to fifth test precipitates were calculated as ratios of the amount of precipitate of troponin I in the first test precipitate, which was obtained without the compound (the concentration of the compound was 0 M).
The affinity of troponin I for the actin-tropomyosin complex was measured using the same method as in Experiment 4, but using propranolol (a β-blocker which is used as a therapeutic agent for heart failure) for comparison with the compound in the invention.
A 500 μl sample was prepared by adding 4.2 μg of actin, 2.1 μg of tropomyosin and 14 μg of troponin I to 500 μl of a reaction solution containing 60 mM KCl, 20 mM MOPS (3-morpholinopropanesulfonic acid), 2 mM MgCl2, 0.05 μg of pepstatin A, and 15 mM 2-mercaptoethanol. […]

## COc1ccc2c(c1)CN(C(=O)CCN1CCC(Cc3ccccc3)CC1)CCS2 [the compound, 4-[3-(4-benzylpiperidine-1-yl)propionyl]-7-methoxy-2,3,4,5-tetrahydro-1,4-benzothiazepine]
Myosin light chains; Test 3: Ca^2+ concentration 0 mol
  The amount of precipitate of myosin light chains (ratio to Test 1 = 1.0): 1.5
Myosin light chains; Test 4: Ca^2+ concentration 10^−5 mol
  The amount of precipitate of myosin light chains (ratio to Test 1 = 1.0): 1.4
[1]; drug concentration 10^−4 mol
  Precipitate of troponin I (ratio to the sample without drug): 2.8
[1]; drug concentration 10^−5 mol
  Precipitate of troponin I (ratio to the sample without drug): 2.2
[1]; drug concentration 10^−6 mol
  Precipitate of troponin I (ratio to the sample without drug): 1.8
[1]; drug concentration 10^−7 mol
  Precipitate of troponin I (ratio to the sample without drug): 1.2
